This is an account of results in patent US20070015723A1, “Antiviral oligonucleotides having a conserved G4 core sequence” (priority 1992, published 2007).

Strand notation (5' to 3'): a small letter for the sugar, then the base; units joined by * are phosphorothioate-linked, units joined directly phosphodiester-linked; [ ] holds rarer units or linkages, { } end groups; capitals alone tell only the bases. d = 2'-deoxy (DNA)

The target of one data set is T1, human type II phospholipase A2 (Homo sapiens, UniProt P14555).
T1 sequence (P14555 21-144): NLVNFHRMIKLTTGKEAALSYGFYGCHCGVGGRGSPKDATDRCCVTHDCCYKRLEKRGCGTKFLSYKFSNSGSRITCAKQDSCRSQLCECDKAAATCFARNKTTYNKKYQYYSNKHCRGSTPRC
The data set is described as follows: Human type II phospholipase A2 enzyme assay (3H-oleic acid labelled E. coli substrate). The class given is biochemical.
Conditions: not given
As to “ISIS 3628: GGAGCCCTfCTATACCCACCC, phosphorothioate, SEQ ID NO 78”, the “I.C.50 relative to ISIS 3196 (fold higher)” value is on record as “approximately 10 fold”.

Staying with this data set, now noted: 1 μM.
In the case of “ISIS 3470: GTAGGGAGGGAGGGTATGAGA, phosphorothioate, SEQ ID NO 66 (dG*dT*dA*dG*dG*dG*dA*dG*dG*dG*dA*dG*dG*dG*dT*dA*dT*dG*dA*dG*dA)”, the “inhibition of human type II phospholipase A2” value is recorded as “completely inhibited”.

Still in this data set, the particulars now being: 1 μM; Table 4.
Turning to “ISIS 3473: CTGCCTGGCCTCTAGGATGGG, phosphorothioate, SEQ ID NO 69 (dC*dT*dG*dC*dC*dT*dG*dG*dC*dC*dT*dC*dT*dA*dG*dG*dA*dT*dG*dG*dG)”, the “% Inhibition (1 μM)” value was 25.9%.
On the same count and under the same terms, in the case of “ISIS 3659: TGCTCCTCCTTGGTGGCTCTC, phosphorothioate, SEQ ID NO 84 (dT*dG*dC*dT*dC*dC*dT*dC*dC*dT*dT*dG*dG*dT*dG*dG*dC*dT*dC*dT*dC)” it was 38.2%.
On the same count and under the same terms, in the case of “ISIS 3676: AGCTCTTACCAAAGATCATGA, phosphorothioate, SEQ ID NO 89 (dA*dG*dC*dT*dC*dT*dT*dA*dC*dC*dA*dA*dA*dG*dA*dT*dC*dA*dT*dG*dA)” it was 24.5%; in that of “ISIS 3480: TTGCTTTATTCAGAAGAGACC, phosphorothioate, SEQ ID NO 76 (dT*dT*dG*dC*dT*dT*dT*dA*dT*dT*dC*dA*dG*dA*dA*dG*dA*dG*dA*dC*dC)”, 24.5%; in that of “ISIS 3694: ACAGCAGCTGTGAGGAGACAC, phosphorothioate, SEQ ID NO 92 (dA*dC*dA*dG*dC*dA*dG*dC*dT*dG*dT*dG*dA*dG*dG*dA*dG*dA*dC*dA*dC)”, 28.2%.
On the same count and under the same terms, in the case of “ISIS 3192: GGAAGGTTTCGAGQGAAGAGG, phosphorothioate, SEQ ID NO 63” it was 28.1%; in that of “ISIS 3184: TTCATGGTAAGAGTTCTTGGG, phosphorothioate, SEQ ID NO 60 (dT*dT*dC*dA*dT*dG*dG*dT*dA*dA*dG*dA*dG*dT*dT*dC*dT*dT*dG*dG*dG)”, 25.1%.
Regarding “ISIS 3468: GGGACTCAGCAACGAGGGGTG, phosphorothioate, SEQ ID NO 65 (dG*dG*dG*dA*dC*dT*dC*dA*dG*dC*dA*dA*dC*dG*dA*dG*dG*dG*dG*dT*dG)”, the “% Inhibition (1 μM)” value is 97.5%.
Still for that read-out and setting: as for “ISIS 3185: CAAAGATCATGATCACTGCCA, phosphorothioate, SEQ ID NO 61 (dC*dA*dA*dA*dG*dA*dT*dC*dA*dT*dG*dA*dT*dC*dA*dC*dT*dG*dC*dC*dA)”, the figure is 22.7%; as for “ISIS 4149: CTACGGCAGAGACGAGATAGC, phosphorothioate, SEQ ID NO 96 (dC*dT*dA*dC*dG*dG*dC*dA*dG*dA*dG*dA*dC*dG*dA*dG*dA*dT*dA*dG*dC)”, 20.2%; as for “ISIS 3472: TGGGTGAGGGATGCTTTCTGC, phosphorothioate, SEQ ID NO 68 (dT*dG*dG*dG*dT*dG*dA*dG*dG*dG*dA*dT*dG*dC*dT*dT*dT*dC*dT*dG*dC)”, 69.0%.
The same measure, in the same setting: as for “ISIS 3665: GGACTGGCCTAGCTCCTCTGC, phosphorothioate, SEQ ID NO 86 (dG*dG*dA*dC*dT*dG*dG*dC*dC*dT*dA*dG*dC*dT*dC*dC*dT*dC*dT*dG*dC)”, the figure is 45.8%; as for “ISIS 3688: TGGCCTCACCGATCCGTTGCA, phosphorothioate, SEQ ID NO 91 (dT*dG*dG*dC*dC*dT*dC*dA*dC*dC*dG*dA*dT*dC*dC*dG*dT*dT*dG*dC*dA)”, 43.1%.
Turning to “ISIS 3628: GGAGCCCTfCTATACCCACCC, phosphorothioate, SEQ ID NO 78”, the “% Inhibition (1 μM)” value turned out to be 13.6%.
The same measure, in the same setting: as for “ISIS 3633: GTAGGGATGGGAGTGAAGGAG, phosphorothioate, SEQ ID NO 83 (dG*dT*dA*dG*dG*dG*dA*dT*dG*dG*dG*dA*dG*dT*dG*dA*dA*dG*dG*dA*dG)”, the figure is 58.5%; as for “ISIS 3475: TCTCATTCTGGGTGGGTATAG, phosphorothioate, SEQ ID NO 71 (dT*dC*dT*dC*dA*dT*dT*dC*dT*dG*dG*dG*dT*dG*dG*dG*dT*dA*dT*dA*dG)”, 67.0%; as for “ISIS 3470: GTAGGGAGGGAGGGTATGAGA, phosphorothioate, SEQ ID NO 66 (dG*dT*dA*dG*dG*dG*dA*dG*dG*dG*dA*dG*dG*dG*dT*dA*dT*dG*dA*dG*dA)”, 88.9%.
“ISIS 3481: TTTTTGATTTGCTAATTGCTT, phosphorothioate, SEQ ID NO 77 (dT*dT*dT*dT*dT*dG*dA*dT*dT*dT*dG*dC*dT*dA*dA*dT*dT*dG*dC*dT*dT)”: the “% Inhibition (1 μM)” value is on record as 2.2%.
As for “ISIS 3629: CACCCCTCGTTGCTGAGTCCC, phosphorothioate, SEQ ID NO 79 (dC*dA*dC*dC*dC*dC*dT*dC*dG*dT*dT*dG*dC*dT*dG*dA*dG*dT*dC*dC*dC)”, the “% Inhibition (1 μM)” value was determined as 20.5%.
The same measure, in the same setting: in the case of “ISIS 3712: AGGAGTCCTGTTTTGAAATCA, phosphorothioate, SEQ ID NO 94 (dA*dG*dG*dA*dG*dT*dC*dC*dT*dG*dT*dT*dT*dT*dG*dA*dA*dA*dT*dC*dA)” it was 31.8%; in that of “ISIS 3476: GCTGGAAATCTGCTGGATGTC, phosphorothioate, SEQ ID NO 72 (dG*dC*dT*dG*dG*dA*dA*dA*dT*dC*dT*dG*dC*dT*dG*dG*dA*dT*dG*dT*dC)”, 43.4%; in that of “ISIS 3193: CCTGCAGTAGGCCTGGAAGGA, phosphorothioate, SEQ ID NO 64 (dC*dC*dT*dG*dC*dA*dG*dT*dA*dG*dG*dC*dC*dT*dG*dG*dA*dA*dG*dG*dA)”, 22.6%.
Same read-out and setting: as for “ISIS 3471: AAGGAACTTGGTTAGGGTAGG, phosphorothioate, SEQ ID NO 67 (dA*dA*dG*dG*dA*dA*dC*dT*dT*dG*dG*dT*dT*dA*dG*dG*dG*dT*dA*dG*dG)”, the figure is 34.5%; as for “ISIS 3479: CCGGAGTACAGGTTCTTTGGT, phosphorothioate, SEQ ID NO 75”, 42.3%; as for “ISIS 3697: ACTCTTACCACAGGTGATTCT, phosphorothioate, SEQ ID NO 93 (dA*dC*dT*dC*dT*dT*dA*dC*dC*dA*dC*dA*dG*dG*dT*dG*dA*dT*dT*dC*dT)”, 39%.
Still for that read-out and setting: in the case of “ISIS 3671: TAGGAGGGTCTTCATGGTAAG, phosphorothioate, SEQ ID NO 88 (dT*dA*dG*dG*dA*dG*dG*dG*dT*dC*dT*dT*dC*dA*dT*dG*dG*dT*dA*dA*dG)” it was 49.3%.
Regarding “ISIS 3477: GTGGAGGAGAGCAGTAGAAGG, phosphorothioate, SEQ ID NO 73 (dG*dT*dG*dG*dA*dG*dG*dA*dG*dA*dG*dC*dA*dG*dT*dA*dG*dA*dA*dG*dG)”, the “% Inhibition (1 μM)” value worked out at 54.7%.
On the same count and under the same terms, in the case of “ISIS 3630: TCTCATACCCTCCCTCCCTAC, phosphorothioate, SEQ ID NO 80 (dT*dC*dT*dC*dA*dT*dA*dC*dC*dC*dT*dC*dC*dC*dT*dC*dC*dC*dT*dA*dC)” it was 17.6%; in that of “ISIS 3679: AGTAGGCCTGGAAGGAAATTT, phosphorothioate, SEQ ID NO 90 (dA*dG*dT*dA*dG*dG*dC*dC*dT*dG*dG*dA*dA*dG*dG*dA*dA*dA*dT*dT*dT)”, 30.3%; in that of “ISIS 3181: TCTGCCCCGGCCGTCGCTCCC, phosphorothioate, SEQ ID NO 58 (dT*dC*dT*dG*dC*dC*dC*dC*dG*dG*dC*dC*dG*dT*dC*dG*dC*dT*dC*dC*dC)”, 42.7%.
On the same count and under the same terms, as for “ISIS 3669: GGTGACAAATGCAGATGGACT, phosphorothioate, SEQ ID NO 87 (dG*dG*dT*dG*dA*dC*dA*dA*dA*dT*dG*dC*dA*dG*dA*dT*dG*dG*dA*dC*dT)”, the figure is 34.7%.

Staying with this data set, now noted: 1 μM; Table 5, two separate experiments.
With “GGG TGG GTA TAG AAG: truncated version of ISIS 3196, SEQ ID NO 98 (dG*dG*dG*dT*dG*dG*dG*dT*dA*dT*dA*dG*dA*dA*dG)”, the “% Inhibition (1 μM)” value was 82.5%.
The same measure, in the same setting: in the case of “GGG TGG GTA TAG AAG GGC: truncated version of ISIS 3196, SEQ ID NO 97 (dG*dG*dG*dT*dG*dG*dG*dT*dA*dT*dA*dG*dA*dA*dG*dG*dG*dC)” it was 85.3%; in that of “TGG GTA TAG AAG GGC TCC: truncated version of ISIS 3196, SEQ ID NO 99 (dT*dG*dG*dG*dT*dA*dT*dA*dG*dA*dA*dG*dG*dG*dC*dT*dC*dC)”, 84.6%.
Still for that read-out and setting: in the case of “ISIS 4957: GGG TGG ATA TAG, SEQ ID NO 106 (dG*dG*dG*dT*dG*dG*dA*dT*dA*dT*dA*dG; aptamer)” it was 81.9%; in that of “ISIS 4947: AGG TGG GTA TAG, SEQ ID NO 103 (dA*dG*dG*dT*dG*dG*dG*dT*dA*dT*dA*dG; aptamer)”, 22.7%.
On the same count and under the same terms, as for “ISIS 4956: GGG CGG GTA TAG, SEQ ID NO 105 (dG*dG*dG*dC*dG*dG*dG*dT*dA*dT*dA*dG; aptamer)”, the figure is 92.0%; as for “ISIS 4955: GGG AGG GTA TAG, SEQ ID NO 104 (dG*dG*dG*dA*dG*dG*dG*dT*dA*dT*dA*dG; aptamer)”, 97.5%; as for “ISIS 4946: GGG TGG GAA TAG, SEQ ID NO 107 (dG*dG*dG*dT*dG*dG*dG*dA*dA*dT*dA*dG; aptamer)”, 73.2%.
As for “TAG AAG GGC TCC: truncated version of ISIS 3196, SEQ ID NO 101 (dT*dA*dG*dA*dA*dG*dG*dG*dC*dT*dC*dC)”, the “% Inhibition (1 μM)” value is recorded as 0%.
On the same count and under the same terms, as for “GTA TAG AAG GGC TCC: truncated version of ISIS 3196, SEQ ID NO 100 (dG*dT*dA*dT*dA*dG*dA*dA*dG*dG*dG*dC*dT*dC*dC)”, the figure is 9.2%.

The same data set, now with this note: concentrations as high as 10 μM.
In the case of “ISIS 1573: phosphorothioate deoxyoligonucleotide, SEQ ID NO: 120 (dG*dA*dG*dG*dC*dT*dG*dA*dG*dG*dT*dG*dG*dG*dA*dG*dG*dA)”, the “inhibition of phospholipase A2” value was “did not significantly inhibit”.

Still in this data set, the particulars now being: increasing E. coli substrate; ISIS 3481 at 0.2 μM and 2 μM.
As to “ISIS 3481: TTTTTGATTTGCTAATTGCTT, phosphorothioate, SEQ ID NO 77 (dT*dT*dT*dT*dT*dG*dA*dT*dT*dT*dG*dC*dT*dA*dA*dT*dT*dG*dC*dT*dT)”, the “effect on substrate kinetics” value was “did not modify the substrate kinetics”.
